Earlier results in patent US20050049209A1, “Pharmaceutical compositions for delivering macrolides” (priority 2003, published 2005).

Conditions: can be solubilized at pH<5 as salt

solubility in water: substantially insoluble
Structure (SMILES): CC[C@H]1OC(=O)[C@H](C)[C@@H](OC2CC(C)(OC)C(O)C(C)O2)[C@H](C)[C@@H](OC2OC(C)CC(N(C)C)C2O)[C@](C)(OC)C[C@@H](C)C(=O)[C@H](C)[C@@H](O)[C@]1(C)O (stereo partly shown) [Clarithromycin freebase, 6-O-methyl-erythromycin]
